Values joined by “and” are separate entries in the source; they are usually repeats but may differ in a detail not shown here. Equal values may be shown once.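 Five concentrations, 48 hours, 96-well plates. At the GI50, growth is halved. The concentration for full growth arrest is given as TGI.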
Tests used:
Experiment in all cases: inhibition of tumour cell growth, NCI panel, 48 h
[1] = test system: NCI-H23 lung
[2] = test system: SF-539 CNS
[3] = test system: OVCAR-5 ovarian
[4] = test system: NCI-H226 lung
[5] = test system: HCC-2998 colon
[6] = test system: SK-MEL-28 melanoma
[7] = test system: MALME-3M melanoma
[8] = test system: SK-OV-3 ovarian
[9] = test system: SNB-19 CNS
[10] = test system: SNB-75 CNS

| SMILES | GI50 [1] | TGI [1] | GI50 [2] | TGI [2] | GI50 [3] | TGI [3] | GI50 [4] | TGI [4] | GI50 [5] | TGI [5] | GI50 [6] | TGI [6] | GI50 [7] | TGI [7] | GI50 [8] | TGI [8] | GI50 [9] | TGI [9] | GI50 [10] | TGI [10] |
| --- | --- | --- | --- | --- | --- | --- | --- | --- | --- | --- | --- | --- | --- | --- | --- | --- | --- | --- | --- | --- |
| COc1ccc(-c2cnoc2-c2cc(OC)c3c(c2)OCCO3)cc1 | 0.0599 µM | > 100 µM | 0.0235 µM | 0.0907 µM | 0.0617 µM | > 86.7 µM | 0.738 µM | > 94.4 µM | 0.083 µM | 22 µM | 10.1 µM | > 100 µM | 39.8 µM | > 100 µM | 0.0312 µM | 2.8 µM | 0.0525 µM | > 100 µM | 0.0195 µM | 34.4 µM |
| O=C(Cl)C1=C(c2ccccc2)C1c1ccccc1 (stereo not given) |  | > 100 µM |  | > 100 µM |  | > 100 µM |  | > 100 µM |  | > 100 µM |  | > 100 µM |  | > 100 µM |  | > 100 µM |  | > 100 µM |  | > 100 µM |
| CCOc1ccc(Nc2c3ccccc3nc3ccccc23)cc1 | 0.495 µM and 0.422 µM | 4.51 µM and 3.3 µM | 0.51 µM and 0.419 µM | 11.8 µM and 10.2 µM | 1.91 µM and 0.514 µM | 18.3 µM and 13.2 µM | 1.33 µM and 1.29 µM | 3.83 µM and 4.06 µM | 0.816 µM | 2.78 µM and 0.65 µM | 0.855 µM and 0.378 µM | 6.51 µM and 2.32 µM | 0.806 µM and 0.468 µM | 4.1 µM and 3.45 µM | 0.501 µM and 0.323 µM | 6.06 µM and 7.73 µM | 0.817 µM and 0.556 µM | 13.8 µM and 15.3 µM | 0.309 µM and 0.25 µM | 3.39 µM and 1.52 µM |
| Fc1ccc2nc(-c3cc(-c4ccc5c(c4)OCO5)n[nH]3)[nH]c2c1 | 6.58 µM | > 93.8 µM | 3.24 µM | 31.2 µM | 35.5 µM | > 100 µM | 3.92 µM | 40.5 µM | 5.56 µM | > 72.8 µM | 8.61 µM | 53.2 µM | 2.75 µM | > 100 µM | 7.95 µM | 26.5 µM | > 32.5 µM | > 100 µM | 2.8 µM | 13.8 µM |
| O=[N+]([O-])c1ccc(-c2cc3c(Nc4ccc(Cl)c(C(F)(F)F)c4)ncnc3s2)cc1 | 1.06 µM | > 100 µM | 1.88 µM | 9.4 µM | 1.35 µM | > 100 µM | 2.89 µM | > 100 µM | 2.02 µM | > 100 µM | 2.24 µM | > 100 µM | 1.51 µM | 4.19 µM | 2.77 µM | > 26.3 µM | 1.29 µM | > 86.4 µM | 1.87 µM | 9.02 µM |
| CC1c2ccccc2N=C2SC(=S)N3CCN=C3N21 (stereo not given) | > 100 µM | > 100 µM | > 100 µM | > 100 µM | > 100 µM | > 100 µM | > 100 µM | > 100 µM | > 100 µM | > 100 µM | > 100 µM | > 100 µM | > 100 µM | > 100 µM | > 100 µM | > 100 µM | > 100 µM | > 100 µM | > 100 µM | > 100 µM |
| CCCCCCCCCCCCCCCCCCOCC(COCCOCC[N+]1(CCCCCC(=O)[O-])CCCC1)Oc1ncccn1 (stereo not given) |  | 18.1 µM |  | 15.8 µM |  | 13.9 µM |  | 26.7 µM |  | 17.4 µM |  | 22.2 µM |  | 32.8 µM |  | 6.62 µM |  | 16.5 µM |  | 12.8 µM |
| Cc1c(C)c(CC(=O)N2CC2)c(C)c(C)c1CC(=O)N1CC1 |  | 39.4 µM |  | 16.5 µM |  | > 83.8 µM |  | 43.6 µM |  | 25.2 µM |  | 37.6 µM |  | 27.1 µM |  | 99.5 µM |  | > 100 µM |  | 50.8 µM |
| O=C(O)c1ccccc1C(=O)c1ccc2c(c1)Cc1ccccc1-2 |  | > 100 µM |  | > 100 µM |  | > 100 µM |  | > 100 µM |  | 88 µM |  | > 100 µM |  | > 100 µM |  | > 100 µM |  | > 100 µM |  | > 100 µM |
| N#Cc1c(-c2ccco2)cc(-c2ccccc2)[nH]c1=O |  | > 100 µM |  | > 100 µM |  | > 100 µM |  | > 100 µM |  | > 100 µM |  | > 100 µM |  | > 100 µM |  | > 100 µM |  | > 100 µM |  | > 100 µM |
| C=C1C(=O)C23C(O)C1CC[C@H]2C12CCCC(C)(COC(C)=O)[C@H]1[C@H](O)[C@]3(O)OC2 (stereo not given in full) |  | 3.53 µM |  | 3.07 µM |  | 5.18 µM |  | 5.7 µM |  | 3.32 µM |  | 2.97 µM |  | 3.01 µM |  | 13.3 µM |  | 7.03 µM |  | 4.33 µM |
| OCc1ccc(N2CCOCC2)cc1Cl | > 100 µM | > 100 µM | > 100 µM | > 100 µM | 2.42 µM | 10.6 µM | 0.705 µM | 2.37 µM | > 57.1 µM | > 100 µM | > 100 µM | > 100 µM | > 100 µM | > 100 µM | > 100 µM | > 100 µM | > 100 µM | > 100 µM | > 100 µM | > 100 µM |
| CC(C)Oc1ccc(C(=O)Cn2ccnc2)cc1-n1c(CN2CCN(C(=O)COc3ccc(Cl)cc3)CC2)nc2ccccc2c1=O | 16.2 µM | 37.7 µM | 14.4 µM | 30.4 µM | 17.6 µM | 42.4 µM | 14.5 µM | 38.9 µM | 15.7 µM | 31 µM | 14.1 µM | 29.9 µM | 12.5 µM | 30.3 µM | 20 µM | 76.2 µM | 29.6 µM | > 100 µM | 5.49 µM | 32.2 µM |
| Cn1c(=O)nc2n(-c3ccc(Cl)c(C(F)(F)F)c3)c3ccccc3nc-2c1=O |  | > 83.2 µM |  | > 79.9 µM |  | > 100 µM |  | > 100 µM |  | 80.8 µM |  | > 100 µM |  | 34.7 µM |  | > 100 µM |  | 63.1 µM |  | > 100 µM |
| C/C1=C\CC[C@@](C)(O)[C@@H]2C[C@H](CC/C(C)=C/CC1)C1(CC1)C(=O)O2 | 18.9 µM | 48.7 µM | 49.4 µM | > 100 µM | 54.9 µM | > 100 µM | 25.8 µM | 76.2 µM | 30.4 µM | 66.6 µM | 18 µM | 41.3 µM | 21.6 µM | 64.8 µM | 39 µM | > 100 µM | 61.9 µM | > 100 µM | 30.8 µM | > 100 µM |
| Nc1cc(-c2ccc(Cl)cc2)nn1-c1nnc(/C=C/c2ccco2)c(=O)[nH]1 | 7.73 µM | 63.5 µM | 4.4 µM | 22.4 µM | 10.9 µM | > 90.5 µM | 10.1 µM | 67.4 µM | 6.6 µM | > 84.5 µM | 6.42 µM | 61 µM | 7.44 µM | 54.6 µM | 6.09 µM | > 86.2 µM | 5.11 µM | > 83.3 µM | 12.9 µM | 41.4 µM |
| CCn1c(-c2nonc2N)nc2ccncc21 | > 25 µM | > 25 µM | > 25 µM | > 25 µM | > 25 µM | > 25 µM | > 25 µM | > 25 µM | > 25 µM | > 25 µM | > 25 µM | > 25 µM | > 25 µM | > 25 µM | > 25 µM | > 25 µM | > 25 µM | > 25 µM | > 25 µM | > 25 µM |
| COC(=O)c1ccc2c(c1)C(=O)c1c-2n(CCCN=[N+]=[N-])c(=O)c2cc([N+](=O)[O-])ccc12 | 60 µM | > 100 µM | 53.1 µM | > 100 µM | > 100 µM | > 100 µM | > 100 µM | > 100 µM | > 100 µM | > 100 µM | > 100 µM | > 100 µM | 63 µM | > 100 µM | 35.3 µM | > 100 µM | 47.4 µM | > 100 µM | 20.5 µM | 40.8 µM |
| CN(C)C(=S)Nc1nnc(Nc2ccccc2)s1 |  | > 100 µM |  | > 100 µM |  | > 100 µM |  | > 100 µM |  | > 100 µM |  | > 100 µM |  | > 100 µM |  | > 100 µM |  | > 100 µM |  | > 100 µM |
| CC1OC(c2ccc3c(c2O)C(=O)C2=C(C3=O)C3(O)C(=O)CC(C)(O)CC3(O)C=C2)CC(O)C1O (stereo not given) |  | 45.6 µM |  | 35.6 µM |  | 31.8 µM |  | 49.8 µM |  | 31.7 µM |  | 29.4 µM |  | 12.8 µM |  | > 100 µM |  | 58.8 µM |  | 48.7 µM |
